Test results from the supplement of paper PMC4862054.

How the values were obtained:
Settings in all cases: incubation time: 72 h
[1] = system: HDQ-P1; experiment: normalised response (% of control), CellTox Green; higher = less cell death (100 = DMSO, 0 = benzethonium chloride kill control)
Procedure, shortened: (§1)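 After 72 h with compound in 384-well plates, breast cancer cell lines seeded as 20 µl suspension were read for CellTox Green fluorescence at 485/520 nm. CellTiter-Glo luminescence was then read after 10 min at room temperature. Compound was present at 5 concentrations in 10-fold steps over a 10,000-fold range set per compound, and plates were normalised to 0.1 % DMSO (100) and a positive kill control (0). Values are normalised signals, each at a single concentration.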

[2] = system: MDA-MB-436; experiment: as above
Procedure, shortened: as §1

[3] = system: MFM-223; experiment: as above
Procedure, shortened: as §1

[4] = system: BT-474; experiment: as above
Procedure, shortened: as §1

[5] = system: CAL-85-1; experiment: as above
Procedure, shortened: as §1

[6] = system: BT-549; experiment: as above
Procedure, shortened: as §1

[7] = system: CAL-148; experiment: as above
Procedure, shortened: as §1

[8] = system: MDA-MB-453; experiment: as above
Procedure, shortened: as §1

[9] = system: MDA-MB-231; experiment: as above
Procedure, shortened: as §1

[10] = system: HCC1599; experiment: as above
Procedure, shortened: as §1

[11] = system: CAL-120; experiment: as above
Procedure, shortened: as §1

[12] = system: CAL-51; experiment: as above
Procedure, shortened: as §1

[13] = system: MDA-MB-468; experiment: as above
Procedure, shortened: as §1

[14] = system: MCF-10A; experiment: as above
Procedure, shortened: as §1

[15] = system: DU-4475; experiment: as above
Procedure, shortened: as §1

[16] = system: HCC1937; experiment: as above
Procedure, shortened: as §1

[17] = system: HCC1143; experiment: as above
Procedure, shortened: as §1

[18] = system: HDQ-P1; experiment: normalised response (% of control), CellTiter-Glo; higher = more viable cells (100 = DMSO, 0 = benzethonium chloride kill control)
Procedure, shortened: as §1

[19] = system: MDA-MB-436; experiment: as above
Procedure, shortened: as §1

[20] = system: MFM-223; experiment: as above
Procedure, shortened: as §1

[21] = system: BT-474; experiment: as above
Procedure, shortened: as §1

[22] = system: CAL-85-1; experiment: as above
Procedure, shortened: as §1

[23] = system: BT-549; experiment: as above
Procedure, shortened: as §1

[24] = system: CAL-148; experiment: as above
Procedure, shortened: as §1

[25] = system: MDA-MB-453; experiment: as above
Procedure, shortened: as §1

[26] = system: MDA-MB-231; experiment: as above
Procedure, shortened: as §1

[27] = system: HCC1599; experiment: as above
Procedure, shortened: as §1

[28] = system: CAL-120; experiment: as above
Procedure, shortened: as §1

[29] = system: CAL-51; experiment: as above
Procedure, shortened: as §1

[30] = system: MDA-MB-468; experiment: as above
Procedure, shortened: as §1

[31] = system: MCF-10A; experiment: as above
Procedure, shortened: as §1

[32] = system: DU-4475; experiment: as above
Procedure, shortened: as §1

[33] = system: HCC1937; experiment: as above
Procedure, shortened: as §1

[34] = system: SK-BR-3; experiment: as above
Procedure, shortened: as §1

[35] = system: Hs578T; experiment: as above
Procedure, shortened: as §1

[36] = system: HCC1143; experiment: as above
Procedure, shortened: as §1

Question: For `C[C@]12CC[C@@H]3c4ccc(OC(=O)N(CCCl)CCCl)cc4CC[C@H]3[C@@H]1CC[C@@H]2O` [Estramustine] (1000 nM), which normalised response [1] is on record?
Answer: 70.6%

Question: And the normalised response [2]?
Answer: 93.3%

Question: And the normalised response [3]?
Answer: 93.1%

Question: And the normalised response [4]?
Answer: 89%

Question: And the normalised response [5]?
Answer: 107%

Question: What about the normalised response [6] of the same compound?
Answer: 98.6%

Question: And the normalised response [7]?
Answer: 46.8%

Question: What about the normalised response [8] of the same compound?
Answer: 97.3%

Question: What about the normalised response [9] of the same compound?
Answer: 94%

Question: And the normalised response [10]?
Answer: 90.2%

Question: And the normalised response [11]?
Answer: 93.9%

Question: What about the normalised response [12] of the same compound?
Answer: 84.7%

Question: What about the normalised response [13] of the same compound?
Answer: 182%

Question: And the normalised response [14]?
Answer: 55.8%

Question: And the normalised response [15]?
Answer: 96.5%

Question: And the normalised response [16]?
Answer: 67%

Question: What about the normalised response [17] of the same compound?
Answer: 103%

Question: What about the normalised response [18] of the same compound?
Answer: 103%

Question: What about the normalised response [19] of the same compound?
Answer: 98.5%

Question: And the normalised response [20]?
Answer: 86.2%

Question: What about the normalised response [21] of the same compound?
Answer: 96.1%

Question: And the normalised response [22]?
Answer: 93.3%

Question: And the normalised response [23]?
Answer: 104%

Question: And the normalised response [24]?
Answer: 78.6%

Question: What about the normalised response [25] of the same compound?
Answer: 93.5%

Question: What about the normalised response [26] of the same compound?
Answer: 94.4%

Question: What about the normalised response [27] of the same compound?
Answer: 111%

Question: What about the normalised response [28] of the same compound?
Answer: 99.9%

Question: What about the normalised response [29] of the same compound?
Answer: 80.7%

Question: What about the normalised response [30] of the same compound?
Answer: 87.1%

Question: And the normalised response [31]?
Answer: 92%

Question: What about the normalised response [32] of the same compound?
Answer: 88.5%

Question: And the normalised response [33]?
Answer: 95.5%

Question: What about the normalised response [34] of the same compound?
Answer: 87.4%

Question: What about the normalised response [35] of the same compound?
Answer: 95.9%

Question: And the normalised response [36]?
Answer: 93.5%

Question: `Cc1ccc([N+](=O)[O-])cc1S(=O)(=O)N(C)/N=C/c1cnc2ccc(Br)cn12` [PIK-75] (1 nM) was tested. Which normalised response [18] did it give?
Answer: 98.8%

Question: And the normalised response [19]?
Answer: 88.9%

Question: What about the normalised response [20] of the same compound?
Answer: 92.2%

Question: And the normalised response [21]?
Answer: 89.6%

Question: And the normalised response [22]?
Answer: 92.2%

Question: And the normalised response [23]?
Answer: 99%

Question: What about the normalised response [24] of the same compound?
Answer: 96.4%

Question: And the normalised response [25]?
Answer: 100%

Question: What about the normalised response [26] of the same compound?
Answer: 92.9%

Question: What about the normalised response [27] of the same compound?
Answer: 108%

Question: What about the normalised response [28] of the same compound?
Answer: 92.4%

Question: And the normalised response [29]?
Answer: 73.8%

Question: What about the normalised response [30] of the same compound?
Answer: 94.9%

Question: What about the normalised response [31] of the same compound?
Answer: 95%

Question: What about the normalised response [32] of the same compound?
Answer: 95.6%

Question: What about the normalised response [33] of the same compound?
Answer: 94.7%

Question: And the normalised response [34]?
Answer: 99.6%

Question: And the normalised response [35]?
Answer: 97.9%

Question: What about the normalised response [36] of the same compound?
Answer: 93.8%

Question: For `Cc1ccc([N+](=O)[O-])cc1S(=O)(=O)N(C)/N=C/c1cnc2ccc(Br)cn12` [PIK-75] (10 nM), which normalised response [18] is on record?
Answer: 95.5%

Question: And the normalised response [19]?
Answer: 99.1%

Question: And the normalised response [20]?
Answer: 92.7%

Question: And the normalised response [21]?
Answer: 83.5%

Question: What about the normalised response [22] of the same compound?
Answer: 89.3%

Question: And the normalised response [23]?
Answer: 101%

Question: And the normalised response [24]?
Answer: 90.3%

Question: What about the normalised response [25] of the same compound?
Answer: 79.2%

Question: And the normalised response [26]?
Answer: 88.9%

Question: And the normalised response [27]?
Answer: 96.9%

Question: What about the normalised response [28] of the same compound?
Answer: 86.8%

Question: What about the normalised response [29] of the same compound?
Answer: 79.1%

Question: What about the normalised response [30] of the same compound?
Answer: 82.2%

Question: And the normalised response [31]?
Answer: 108%

Question: And the normalised response [32]?
Answer: 97%

Question: And the normalised response [33]?
Answer: 90.3%

Question: And the normalised response [34]?
Answer: 74.4%

Question: What about the normalised response [35] of the same compound?
Answer: 91.5%

Question: And the normalised response [36]?
Answer: 90.2%
